In ChEMBL document CHEMBL3217418, “Design, synthesis and biological activity evaluation of regioisomeric spiro-(indoline-isoxazolidines) in the inhibition of TNF--induced ICAM-1 expression on human endothelial cells” (Medchemcomm, 2012):
Calls of active or inactive are those of the source. No cut-off for these calls is given here.

Key:
HUVEC = test: Antiinflammatory activity in HUVEC assessed as inhibition of TNFalpha-induced ICAM-1 expression incubated for 2 hrs prior to TNFalpha challenge measured after 16 hrs by ELISA; type: functional, cell-based; details: Homo sapiens
Neutrophil = test: Inhibition of human neutrophil adhesion to human endothelial cells incubated for 2 hrs prior to TNFalpha challenge measured after 6 hrs by spectroscopy; type: functional, cell-based
[1] = molecular target: Transcription factor p65 (Homo sapiens) (UniProt Q04206); test: Inhibition of NF-kappaB p65 subunit translocation from cytoplasm to nucleus in HUVEC at 1 to 100 uM incubated for 2 hrs prior to TNFalpha challenge measured after 30 mins by SDS-PAGE
[2] = molecular target: Transcription factor p65 (Homo sapiens) (UniProt Q04206); test: Inhibition of NF-kappaB p65 subunit translocation from cytoplasm to nucleus in HUVEC assessed as NF-kappaB p65 subunit level in cytoplasm at 1 to 100 uM incubated for 2 hrs prior to TNFalpha challenge measured after 30 mins by densitometry
[3] = molecular target: Transcription factor p65 (Homo sapiens) (UniProt Q04206); test: Inhibition of NF-kappaB p65 subunit translocation from cytoplasm to nucleus in HUVEC assessed as NF-kappaB p65 subunit level in nuclear extract at 1 to 100 uM incubated for 2 hrs prior to TNFalpha challenge measured after 30 mins by densitometry
[4] = Cytotoxicity against HUVEC assessed as concentration at which viability is > 95 % after 24 hrs by MTT assay; type: cell-based; details: human, HUVEC cells; read-out: MTD
[5] = Cytotoxicity against HUVEC assessed as cell viability after 24 hrs by MTT assay relative to control; type: cell-based; set-up: concentration or dose not given beside the values; details: human, HUVEC cells; read-out: Activity
[6] = molecular target: Transcription factor p65 (Homo sapiens) (UniProt Q04206); test: Inhibition of NF-kappaB p65 subunit translocation from cytoplasm to nucleus in HUVEC at 100 uM incubated for 2 hrs prior to TNFalpha challenge measured after 30 mins by SDS-PAGE

Chain of Transcription factor p65 (Homo sapiens) (Q04206 whole entry): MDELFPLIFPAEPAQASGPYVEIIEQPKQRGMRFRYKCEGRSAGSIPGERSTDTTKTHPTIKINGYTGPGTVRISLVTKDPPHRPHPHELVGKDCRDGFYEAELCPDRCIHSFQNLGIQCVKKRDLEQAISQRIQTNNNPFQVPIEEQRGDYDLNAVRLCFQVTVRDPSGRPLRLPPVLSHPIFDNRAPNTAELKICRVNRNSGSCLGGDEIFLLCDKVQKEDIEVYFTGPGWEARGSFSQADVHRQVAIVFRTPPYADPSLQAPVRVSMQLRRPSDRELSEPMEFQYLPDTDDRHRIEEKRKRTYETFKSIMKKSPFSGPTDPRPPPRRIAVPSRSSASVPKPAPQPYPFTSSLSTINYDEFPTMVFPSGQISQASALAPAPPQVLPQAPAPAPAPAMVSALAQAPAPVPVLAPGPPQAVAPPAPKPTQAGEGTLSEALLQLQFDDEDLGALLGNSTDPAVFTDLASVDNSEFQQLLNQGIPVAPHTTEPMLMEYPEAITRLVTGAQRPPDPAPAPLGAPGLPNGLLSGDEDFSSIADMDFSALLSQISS

For `CCOC(=O)C1ON(c2ccccc2)C(c2ccc(OCC)cc2)C12C(=O)Nc1ccc(F)cc12` (stereo not drawn), the IC50 (HUVEC) was 12 µM, the IC50 (Neutrophil) was 12.5 µM and the inhibition (Neutrophil) was “Dose-dependent effect”. For the same molecule, the inhibition [1] was “Dose-dependent effect”, the inhibition [2] was “Active” and the inhibition [3] was “Active”. It also gave an MNTC at 24 h [4] of 105 µM and a viability at 24 h [5] of 97%.

With `CCOC(=O)C1ON(c2ccccc2)C(c2cc(OC)c(OC)c(OC)c2)C12C(=O)Nc1ccc(F)cc12` (stereo not drawn) the IC50 (HUVEC) was 29 µM, the MNTC at 24 h [4] was 96 µM and the viability at 24 h [5] was 97%.

In the case of `CCOC(=O)C1ON(c2ccccc2)C(c2ccccc2F)C12C(=O)Nc1ccc(F)cc12` (stereo not drawn), the IC50 (HUVEC) is reported as 51 µM, the MNTC at 24 h [4] is reported as 111 µM and the viability at 24 h [5] is reported as 96%.

Work on `CCOC(=O)C1C(c2cccc(Br)c2)N(c2ccccc2)OC12C(=O)Nc1ccccc12` (stereo not drawn) yielded an IC50 (HUVEC) of 100 µM, an MNTC at 24 h [4] of 203 µM and a viability at 24 h [5] of 95%.

With `S=C(S)N1CCCC1` the inhibition [6] was “Active”.

Molecule `CCOC(=O)C1C(c2ccc([N+](=O)[O-])cc2)N(c2ccccc2)OC12C(=O)Nc1ccccc12` (stereo not drawn) has an IC50 (HUVEC) greater than 217 µM, an MNTC at 24 h [4] of 218 µM and a viability at 24 h [5] of 97%.

With `CCOC(=O)C1ON(c2ccccc2)C(c2ccc(F)c(F)c2)C12C(=O)Nc1ccc(F)cc12` (stereo not drawn) the IC50 (HUVEC) was 62 µM, the MNTC at 24 h [4] was 107 µM and the viability at 24 h [5] was 95%.

Work on `CCOC(=O)C1ON(c2ccccc2)C(c2ccc(Cl)cc2)C12C(=O)Nc1ccc(F)cc12` (stereo not drawn) yielded an IC50 (HUVEC) of 54 µM, an MNTC at 24 h [4] of 107 µM and a viability at 24 h [5] of 96%.

In the case of `CCOC(=O)C1ON(c2ccccc2)C(c2cccc(OC)c2OC)C12C(=O)Nc1ccc(F)cc12` (stereo not drawn), the IC50 (HUVEC) is reported as 32 µM, the MNTC at 24 h [4] is reported as 102 µM and the viability at 24 h [5] is reported as 98%.

`CCOC(=O)C1C(c2ccc(Cl)cc2)N(c2ccccc2)OC12C(=O)Nc1ccccc12` (stereo not drawn) showed an IC50 (HUVEC) greater than 223 µM, an MNTC at 24 h [4] of 223 µM and a viability at 24 h [5] of 96%.

`CCOC(=O)C1ON(c2ccccc2)C(c2ccc(F)cc2)C12C(=O)Nc1ccc(F)cc12` (stereo not drawn) gave an IC50 (HUVEC) greater than 111 µM, an MNTC at 24 h [4] of 111 µM and a viability at 24 h [5] of 96%.

In the case of `O=C(/C=C/C=C/c1ccc2c(c1)OCO2)N1CCCCC1` [PIPERINE], the IC50 (HUVEC) is reported as 100 µM, the MNTC at 24 h [4] is reported as 250 µM and the viability at 24 h [5] is reported as 98%.

With `CCOC(=O)C1ON(c2ccccc2)C(c2ccc(Br)cc2)C12C(=O)Nc1ccc(F)cc12` (stereo not drawn) the IC50 (HUVEC) was 35 µM, the MNTC at 24 h [4] was 98 µM and the viability at 24 h [5] was 98%.

In the case of `CCOC(=O)C1ON(c2ccccc2)C(c2ccc(C(F)(F)F)cc2)C12C(=O)Nc1ccc(F)cc12` (stereo not drawn), the IC50 (HUVEC) is reported as 57 µM, the MNTC at 24 h [4] is reported as 100 µM and the viability at 24 h [5] is reported as 96%.

For `CCOC(=O)C1ON(c2ccccc2)C(c2cccc(C)c2)C12C(=O)Nc1ccc(F)cc12` (stereo not drawn), the IC50 (HUVEC) was 45 µM, the MNTC at 24 h [4] was 112 µM and the viability at 24 h [5] was 98%.

For `CCOC(=O)C1ON(c2ccccc2)C(c2cccc(C)c2)C12C(=O)Nc1ccccc12` (stereo not drawn), the IC50 (HUVEC) was 35 µM, the MNTC at 24 h [4] was 234 µM and the viability at 24 h [5] was 98%.

In the case of `CCOC(=O)C1C(c2ccc(F)cc2)N(c2ccccc2)OC12C(=O)Nc1ccccc12` (stereo not drawn), the IC50 (HUVEC) is reported as 146 µM, the MNTC at 24 h [4] is reported as 231 µM and the viability at 24 h [5] is reported as 96%.

`CCOC(=O)C1ON(c2ccccc2)C(c2cccc(Br)c2)C12C(=O)Nc1ccccc12` (stereo not drawn) gave an IC50 (HUVEC) of 57 µM, an MNTC at 24 h [4] of 203 µM and a viability at 24 h [5] of 95%.

With `CCOC(=O)C1ON(c2ccccc2)C(c2ccc(F)cc2)C12C(=O)Nc1ccccc12` (stereo not drawn) the IC50 (HUVEC) was 51 µM, the MNTC at 24 h [4] was 116 µM and the viability at 24 h [5] was 96%.

`CCOC(=O)C1C(c2ccc(C)cc2)N(c2ccccc2)OC12C(=O)Nc1ccccc12` (stereo not drawn) showed an IC50 (HUVEC) of 31 µM, an MNTC at 24 h [4] of 234 µM and a viability at 24 h [5] of 96%.
